Measurements published in patent publication US10550105B2 (Ribon Therapeutics Inc., priority 2018, dated 2020).

Target: PARP7 (Homo sapiens (Human), UniProt Q7Z3E1)
Experiment: Enzymatic assay for inhibition of PARP7: TR-FRET displacement of biotinylated Probe A from the TIPARP active site
Type: binding
Details: Table A-1
Protocol: 20 nL of a dose response curve of each test compound was spotted in black 384-well polystyrene proxiplates (Perkin Elmer) using a Mosquito (TTP Labtech). […] Reactions were incubated at 25° C. for an additional 30 min, then read on an Envision platereader equipped with a LANCE/DELFIA top mirror (Perkin Elmer) using excitation of 320 nm and emission of 615 nm and […] with a 90 μs delay. The ratio of the 665/615 nm emission were calculated for each well to determine the amount of complex of TIPARP and Probe A in each well. […] The Hill Coefficient is normally allowed to float but may also be fixed at 1 in a 3-parameter fit. Y is the % inhibition and x is the compound concentration.

Sequence of PARP7 (Q7Z3E1 whole entry): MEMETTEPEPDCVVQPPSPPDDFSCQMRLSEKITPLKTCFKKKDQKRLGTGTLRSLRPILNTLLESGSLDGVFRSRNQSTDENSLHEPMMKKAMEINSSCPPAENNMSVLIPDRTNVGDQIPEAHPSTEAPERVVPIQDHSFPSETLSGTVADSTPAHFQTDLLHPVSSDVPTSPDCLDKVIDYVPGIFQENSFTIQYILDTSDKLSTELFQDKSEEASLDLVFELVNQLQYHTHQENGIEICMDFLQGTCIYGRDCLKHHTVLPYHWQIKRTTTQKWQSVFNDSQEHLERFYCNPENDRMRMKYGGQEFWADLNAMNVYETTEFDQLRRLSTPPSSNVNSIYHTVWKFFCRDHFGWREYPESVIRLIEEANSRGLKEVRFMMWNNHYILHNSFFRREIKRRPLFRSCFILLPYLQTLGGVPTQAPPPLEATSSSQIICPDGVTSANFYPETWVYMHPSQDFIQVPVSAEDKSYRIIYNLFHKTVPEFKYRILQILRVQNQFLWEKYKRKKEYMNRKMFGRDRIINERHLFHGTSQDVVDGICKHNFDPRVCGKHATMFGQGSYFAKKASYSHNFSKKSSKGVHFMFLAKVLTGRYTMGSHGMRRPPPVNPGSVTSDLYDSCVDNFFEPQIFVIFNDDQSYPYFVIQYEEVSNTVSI

IC50	SMILES
100 to 1000 nM	O=C(C[C@H]1CC[C@@H](COc2cn[nH]c(=O)c2C(F)(F)F)O1)N1CCN(c2ccc(C(F)(F)F)cn2)CC1 (single isomer, unassigned) [Example 545 Isomer B]
100 to 1000 nM	O=c1[nH]ncc(N2Cc3cccc(CO)c3C2)c1C(F)(F)F [Example 261, 5-(4-(Hydroxymethyl)isoindolin-2-yl)-4-(trifluoromethyl)pyridazin-3(2H)-one]
100 to 1000 nM	C[C@@H](COCCC(=O)N1CCN(c2ncc(C(F)(F)F)cn2)CC1)N(C)c1cn[nH]c(=O)c1Cl [Example 636, (S)-4-Chloro-5-(methyl(1-(3-oxo-3-(4-(5-(trifluoromethyl)pyrimidin-2-yl)piperazin-1-yl)propoxy)propan-2-yl)amino)pyridazin-3(2H)-one]
100 to 1000 nM	C[C@@H](COCCC(=O)N1CCN(c2ncc(C(F)(F)F)s2)CC1)Oc1cn[nH]c(=O)c1Br [Example 730, (S)-4-Bromo-5-((1-(3-oxo-3-(4-(5-(trifluoromethyl)thiazol-2-yl)piperazin-1-yl)propoxy)propan-2-yl)oxy)pyridazin-3(2H)-one]
100 to 1000 nM	CN1CCC(Oc2ccc3c(n2)CN(c2cn[nH]c(=O)c2C(F)(F)F)C3)CC1 [Example 6, 5-[2-[(1-methylpiperidin-4-yl)oxy]-5H,6H,7H-pyrrolo[3,4-b]pyridin-6-yl]-4-(trifluoromethyl)-2,3-dihydropyridazin-3-one]
100 to 1000 nM	NCc1cc2c(cc1F)CN(c1cn[nH]c(=O)c1C(F)(F)F)C2 [Example 327, 5-(5-(Aminomethyl)-6-fluoroisoindolin-2-yl)-4-(trifluoromethyl)pyridazin-3(2H)-one]
< 100 nM	C[C@@H](COCCC(=O)N1CCN(c2ncc(Cl)cn2)CC1)Nc1cn[nH]c(=O)c1Cl [Example 598, 4-Chloro-5-[[(2S)-1-[3-[4-(5-chloropyrimidin-2-yl)piperazin-1-yl]-3-oxopropoxy]propan-2-yl]amino]-2,3-dihydropyridazin-3-one]
< 100 nM	O=c1[nH]ncc(N2Cc3ccc(OCc4ccncc4)nc3C2)c1C(F)(F)F [Example 321, 5-(2-(Pyridin-4-ylmethoxy)-5,7-dihydro-6H-pyrrolo[3,4-b]pyridin-6-yl)-4-(trifluoromethyl)pyridazin-3(2H)-one]
< 100 nM	C[C@@H](COCCS(=O)(=O)N1CCN(c2ncc(C(F)(F)F)s2)CC1)Nc1cn[nH]c(=O)c1C(F)(F)F [Example 726, (S)-4-(Trifluoromethyl)-5-((1-(2-((4-(5-(trifluoromethyl)thiazol-2-yl)piperazin-1-yl)sulfonyl)ethoxy)propan-2-yl)amino)pyridazin-3(2H)-one]
< 100 nM	CN1CCC(NCc2cc3c(cc2F)CN(c2cn[nH]c(=O)c2C(F)(F)F)C3)CC1 [Example 25, 5-(5-fluoro-6-[[(1-methylpiperidin-4-yl)amino]methyl]-2,3-dihydro-1H-isoindol-2-yl)-4-(trifluoromethyl)-2,3-dihydropyridazin-3-one]
100 to 1000 nM	CN1CCN(C(=O)c2cccc(OCC3c4ccccc4CN3c3cn[nH]c(=O)c3C(F)(F)F)c2)CC1 (centres unmarked) [Example 362, 5-(1-((3-(4-Methylpiperazine-1-carbonyl)phenoxy)methyl)isoindolin-2-yl)-4-(trifluoromethyl)pyridazin-3(2H)-one]
100 to 1000 nM	C[C@H](COCCC(=O)N1CCN(c2ccc(C#N)cn2)CC1)Nc1cn[nH]c(=O)c1C(F)(F)F [Example 513B, (R)-6-(4-(3-(2-(6-Oxo-5-(trifluoromethyl)-1,6-dihydropyridazin-4-ylamino)propoxy)propanoyl)piperazin-1-yl)nicotinonitrile]
< 100 nM	COC[C@@H](COCCC(=O)N1CCN(c2ccc(C#N)cn2)CC1)Oc1cn[nH]c(=O)c1C(F)(F)F (single isomer, unassigned) [Example 532 Isomer A]
≥ 1000 nM	O=C(C[C@@H]1CC[C@H](COc2cn[nH]c(=O)c2Cl)O1)N1CCN(c2ncc(Cl)cn2)CC1 (single isomer, unassigned) [Example 566 Isomer D]
< 100 nM	N#Cc1ccc(N2CCN(C(=O)[C@@H]3CCC[C@@H](OC[C@@H]4CCCN4c4cn[nH]c(=O)c4C(F)(F)F)C3)CC2)nc1 (single isomer, unassigned) [Example 57 Isomer B]
100 to 1000 nM	CC(=O)NCCOc1cccc2c1CN(c1cn[nH]c(=O)c1Cl)C2 [Example 241, N-(2-((2-(5-Chloro-6-oxo-1,6-dihydropyridazin-4-yl)isoindolin-4-yl)oxy)ethyl)acetamide]

IC50	SMILES
< 100 nM	C[C@@H](CN(C)CCC(=O)N1CCN(c2ncc(C(F)(F)F)cn2)CC1)Oc1cn[nH]c(=O)c1C(F)(F)F [Example 616, (S)-5-((1-(Methyl(3-oxo-3-(4-(5-(trifluoromethyl)pyrimidin-2-yl)piperazin-1-yl)propyl)amino)propan-2-yl)oxy)-4-(trifluoromethyl)pyridazin-3(2H)-one]
< 100 nM	COC[C@@H](COCCC(=O)N1CCN(c2ncc(Cl)cn2)CC1)Nc1cn[nH]c(=O)c1C(F)(F)F [Example 558, 5-[[(2S)-1-[3-[4-(5-Chloropyrimidin-2-yl)piperazin-1-yl]-3-oxopropoxy]-3-methoxypropan-2-yl]amino]-4-(trifluoromethyl)-2,3-dihydropyridazin-3-one]
< 100 nM	O=c1[nH]ncc(N2Cc3cccc(OCCN4CCNCC4)c3C2)c1C(F)(F)F [Example 227, 5-(4-(2-(Piperazin-1-yl)ethoxy)isoindolin-2-yl)-4-(trifluoromethyl)pyridazin-3(2H)-one]
< 100 nM	O=c1[nH]ncc(N2Cc3ccc(O[C@H]4CCCNC4)cc3C2)c1C(F)(F)F [Example 289, (S)-5-(5-(Piperidin-3-yloxy)isoindolin-2-yl)-4-(trifluoromethyl)pyridazin-3(2H)-one]
< 100 nM	O=C(C[C@@H]1CC[C@H](CNc2cn[nH]c(=O)c2C(F)(F)F)O1)N1CCN(c2ncc(Cl)cn2)CC1 (single isomer, unassigned) [Example 567 Isomer B]
< 100 nM	N#Cc1ccc(N2CCN(C(=O)c3ccc(Oc4cccc5c4CN(c4cn[nH]c(=O)c4C(F)(F)F)C5)cc3)CC2)nc1 [Example 494, 6-(4-(4-((2-(6-Oxo-5-(trifluoromethyl)-1,6-dihydropyridazin-4-yl)isoindolin-4-yl)oxy)benzoyl)pipoerazin-1-yl)nicotinonitrile]
< 100 nM	N#Cc1ccc(N2CC3CCC2CN3C(=O)CCOC[C@@H]2CCCN2c2cn[nH]c(=O)c2C(F)(F)F)nc1 (stereo partly drawn) [Example 101, 6-[5-(3-[[(2S)-1-[6-oxo-5-(trifluoromethyl)-1,6-dihydropyridazin-4-yl]pyrrolidin-2-yl]methoxy]propanoyl)-2,5-diazabicyclo[2.2.2]octan-2-yl]pyridine-3-carbonitrile]
< 100 nM	Cc1cnc(N2CCN(C(=O)CCOC[C@H](C)Nc3cn[nH]c(=O)c3C(F)(F)F)CC2)s1 [Example 733, (S)-5-((1-(3-(4-(5-Methylthiazol-2-yl)piperazin-1-yl)-3-oxopropoxy)propan-2-yl)amino)-4-(trifluoromethyl)pyridazin-3(2H)-one]
< 100 nM	N#Cc1ccc(N2CCN(C(=O)c3cccc(OCC4c5ncccc5CN4c4cn[nH]c(=O)c4C(F)(F)F)c3)CC2)nc1 (centres unmarked) [Example 397, 6-(4-(3-((6-(6-Oxo-5-(trifluoromethyl)-1,6-dihydropyridazin-4-yl)-6,7-dihydro-5H-pyrrolo[3,4-b]pyridin-7-yl)methoxy)benzoyl)piperazin-1-yl)nicotinonitrile]
< 100 nM	C[C@@H](COCCC(=O)N1CCN(c2ncc(C(F)(F)F)cn2)CC1)Sc1cn[nH]c(=O)c1C(F)(F)F [Example 618, (S)-5-((1-(3-Oxo-3-(4-(5-(trifluoromethyl)pyrimidin-2-yl)piperazin-1-yl)propoxy)propan-2-yl)thio)-4-(trifluoromethyl)pyridazin-3(2H)-one]
< 100 nM	C[C@@H](COCCC(=O)N1CCN(c2nnc(C(F)(F)F)s2)CC1)Nc1cn[nH]c(=O)c1C(F)(F)F [Example 722, (S)-5-((1-(3-Oxo-3-(4-(5-(trifluoromethyl)-1,3,4-thiadiazol-2-yl)piperazin-1-yl)propoxy)propan-2-yl)amino)-4-(trifluoromethyl)pyridazin-3(2H)-one]
< 100 nM	O=c1[nH]ncc(N2Cc3cccc(OCCN4CCOCC4)c3C2)c1C(F)(F)F [Example 214, 5-(4-(2-Morpholinoethoxy)isoindolin-2-yl)-4-(trifluoromethyl)pyridazin-3(2H)-one]
< 100 nM	N#Cc1ccc(OC2CCC(NC(=O)COC[C@@H]3CCCN3c3cn[nH]c(=O)c3C(F)(F)F)CC2)nc1 (stereo partly drawn) [Example 47, N-[4-[(5-cyanopyridin-2-yl)oxy]cyclohexyl]-2-[[(2S)-1-[6-oxo-5-(trifluoromethyl)-1,6-dihydropyridazin-4-yl]pyrrolidin-2-yl]methoxy]acetamide]
< 100 nM	C[C@@H](COCCC(=O)N1CC=C(c2ccc(C#N)cn2)CC1)Oc1cn[nH]c(=O)c1C(F)(F)F [Example 646, (S)-1′-(3-(2-((6-Oxo-5-(trifluoromethyl)-1,6-dihydropyridazin-4-yl)oxy)propoxy)propanoyl)-1′,2′,3′,6′-tetrahydro-[2,4′-bipyridine]-5-carbonitrile]
< 100 nM	N#Cc1ccc(N2CCN(C(=O)CCOC[C@@H]3CCCN3c3cn[nH]c(=O)c3Cl)CC2)nc1 [Example 468, (S)-6-(4-(3-((1-(5-Chloro-6-oxo-1,6-dihydropyridazin-4-yl)pyrrolidin-2-yl)methoxy)propanoyl)piperazin-1-yl)nicotinonitrile]

SMILES	IC50
CC(C)[C@@H](COCCC(=O)N1CCN(c2ccc(C#N)cn2)CC1)Nc1cn[nH]c(=O)c1C(F)(F)F [Example 595, 6-(4-[3-[(2S)-3-Methyl-2-[[6-oxo-5-(trifluoromethyl)-1,6-dihydropyridazin-4-yl]amino]butoxy]propanoyl]piperazin-1-yl)pyridine-3-carbonitrile]	< 100 nM
